Laboratory results taken from patent US11840706B2, “Composition and method for generating a desired cell type and/or tissue type from hair follicular stem cells” (priority 2013, dated 2023).
“Also recorded” adds a separate entry of the source.

System: keratinocytes
Test: Effect of vanadium compounds on proliferation of keratinocytes (hair follicle culture, cell count)
Type: cell-based
Conditions: 14 days culture; for amount of proliferated keratinocytes relative to the control situation: 1 mg/ml in basic SFK growth medium, 31° C., control = SFK medium lacking a vanadium compound
Procedure: Method: Hair follicles were transferred to a 24-well culture disk containing dSFK with 500 mg/ml penicillin (Life Technologies B.V. Breda, The Netherlands) and 0.25 μg/ml streptomycin (Life Technologies B.V. Breda, The Netherlands), and placed for 14 days in a culture medium at 31° C. in a humidified atmosphere containing 5% CO2. Three different culture medium were used: • Treatment group oxovanadium (OVAN): The culture medium is a composition comprising a basic SFK growth serum (purchased from the supplier SFK, Enschede The Netherlands) supplemented with either 1 mg/ml of OVAN. • Treatment group bis (maltolato) oxovanadium (BMOV): The culture medium is a composition comprising a basic SFK growth serum (purchased from the supplier SFK, Enschede The Netherlands) supplemented with either 1 mg/ml of BMOV. • Control group: The control situation consists of a composition comprising the SFK basic growth serum but without the vanadium compounds (i.e. OVAN or BMOV).
The respective culture media were carefully removed every three days and replaced by fresh culture media. The cells remained attached to the hair follicles during this culture period. After 14 days the culture medium was removed and replaced by a 0.5 mg/ml trypsin, 0.2 mg/ml EDTA (ethylene diaminetetraacetic acid) solution (Life Technologies B.V. Breda, The Netherlands), and incubated for 5 minutes at 37° C. in this medium. After this incubation period clusters of cells were released from the hair follicles. These were harvested by centrifugation at 300 g at 4° C. for 5 minutes in an Eppendorf 5804R Centrifuge (VWR International, The Netherlands). Number of cells were counted and expressed as amount of proliferated cells per ml of culture medium.

Cc1occc(=O)c1[O-].Cc1occc(=O)c1[O-].[O]=[V+2] [BMOV, bis(maltolato) oxovanadium]
proliferation of keratinocytes, BMOV compared with OVAN (1 mg/ml each): greater number of proliferated cells relative to treatment with OVAN; also recorded: more potent than OVAN
amount of proliferated keratinocytes relative to the control situation: enhanced proliferation; also recorded: significantly increased

oxovanadium
amount of proliferated keratinocytes relative to the control situation: enhanced proliferation; also recorded: significantly increased
